From patent publication US8178349B2, “Homogeneous neural precursor cells” (Burnham Institute For Medical Research, priority 2005, dated 2012)

Columns and labels:
Assay type in all cases: cell-based, human
[1] = system: glutamate receptors of differentiated hES-NPCs cultures; assay: Calcium imaging; settings: 4-5 week old cultures; NMDA followed by glutamate, 37° C.
Procedure: Calcium Imaging. Measurement of intracellular free Ca2+ ([Ca2+]i) in differentiated HNSC cultures was performed using Fura-2-AM or Fluo-3-AM as described earlier (Tenneti et al., J Neurochem 71: 946-59, 1998) with the minor modification. Briefly, ES derived hNPC cells were washed twice with recording medium containing 150 mM NaCl, 3 mM KCl, 2 mM CaCl2, 5 mM glucose, 10 μM glycine, and 10 mM HEPES (pH 7.4) and incubated generally at 37° C. in recording medium containing 30 nM Pluronic F-127 and 5 μM Fluo-3 AM for 30 minor 10 μMFura-2-AM for 60 min (acetoxymethyl esters; Molecular Probes). Cultures were then washed three times with recording medium, followed by settlement at 37° C. for at least 30 min. Cells were invariably used within 1 hr after these procedures for observation. During the experiments, cells were kept in a perfusion chamber on the microscope stage at room temperature (Fluo-3) or 37° C. (Fura-2 experiments). Imaging was done using a Sutter DG-4 fast wavelength switcher coupled to a Zeiss Axiovert microscope with a 20×, 0.5 NA, objective. […] Changes in fluorescence intensity were calculated by dividing the measured fluorescence intensity (F; ratio of 340/380 nm for Fura-2) by the measured average baseline fluorescence intensity (F/F0) Excitation was achieved using standard FITC or Fura-2 filter sets (Chroma technologies).

differentiated hES-NPCs = assay: Whole-cell patch-clamp recording of GABA-evoked currents; settings: 2.5 weeks in culture
hESCs = assay: Spheroid bodies formation in suspension medium; settings: addition to the suspension medium (2 mM)
Procedure: Spheroid bodies formation: the small clusters (10-100 cells) of hESCs were grown in polypropylene dishes (Ted Pella) in Suspension Medium (1:1 ratio of DMEM/F12:neurobasal medium with N2+B27 supplements, 20 ng/ml insulin 20 ng/ml bFGF, 20 ng/ml EGF and 2 mM N-acetyl cysteine (NAC)). The spheres were grown for 4-6 days, with a change in medium every alternate day.

[2] = system: NMDA-type glutamate receptors of differentiated hES-NPCs; assay: Whole-cell patch-clamp recording of ligand-gated currents; settings: for effect on glutamate-evoked currents: voltage clamp, holding potential −60 mV, after 2 to 2.5 weeks in culture, 100 μM D-APV
[3] = system: Voltage-gated Na+ currents of differentiated hES-NPCs

CN[C@H](CC(=O)O)C(=O)O [NMDA, N-methyl-D-aspartate]
[Ca2+] response of fura-2-loaded cells [1]: Robust responses

NCCCC(=O)O [GABA, γ-aminobutyric acid]
cells with agonist-evoked currents (cells of cells recorded) (differentiated hES-NPCs): 4 of 29

CC(=O)N[C@@H](CS)C(=O)O [NAC, N-acetyl cysteine]
morphology of spheroid bodies (hESCs): healthier morphology of spheroid bodies

N[C@H](CCCP(=O)(O)O)C(=O)O [D-APV, D-(−)-2 amino-5-phosphonovaleric acid]
effect on glutamate-evoked currents [2]: partially blocked | effect on glutamate-evoked currents ([2]; listed as APV): partially inhibited

NC1=N[C@H](O)[C@H]2[C@H]3O[C@]4(O)O[C@@H]([C@@H](O)[C@@]2(N1)[C@@H]4O)[C@]3(O)CO [TTX, tetrodotoxin]
effect on fast Na+ currents [3]: reversibly blocked

N[C@@H](CCC(=O)O)C(=O)O [glutamate]
cells that manifest agonist-evoked currents ([2]; after 2 weeks in culture): approximately 30% | [Ca2+] response of fura-2-loaded cells [1]: Robust responses
